For series [1], the target named is T1, hNav1.7 (Homo sapiens, UniProt Q15858). Briefly: cell-based.
Series [2] can be described thus: Solubility in pharmaceutically acceptable excipients. Type of series: physicochemical. The source says:
Thus, the (S)-enantiomer can be formulated in a fewer number of dosage units than the racemate. This property facilitates dosing patients at a higher level if needed to achieve efficacy.

A short description of series [3]: Phase 1 clinical trial of topical ointment: systemic pharmacokinetics. The class given is in vivo, human.
Another series concerns dental pain. Description: Clinical trial for dental pain after extraction of impacted third molar teeth. The class given is in vivo. The following applies: single 500 mg dose, human subjects. As to the method:
The purpose of this clinical trial was to compare the safety and efficacy (onset, duration of relief, and overall efficacy) of a single 500 mg dose of the (S)-enantiomer of the invention versus placebo dose for relief of pain following extraction of impacted third molar teeth.
Sixty-one subjects were enrolled in the study. The mean age for the subjects was 20.4 years, and all subjects were male. The majority of subjects were Caucasians (95.1%).
The severity and relief of the pain was measured using an 11-point Pain Intensity Numerical Rating Scale (graded from 0=no pain at all to 10=worst pain imaginable) (PINRS) and a 5-point Categorical Pain Relief Scale (REL). Subjects completed the PINRS after surgery, but before the administration of (S)-enantiomer of the invention. Efficacy variables were derived from the REL and PINRS scores and included total pain relief (TOTPAR), pain intensity difference (PID), and summed pain intensity difference (SPID) and evaluated at time points of 4, 6, 8, and 12 hours after administration of the (S)-enantiomer of the invention.

Series [4] has as its target T1, hNav1.7. Description: Electrophysiological assay, whole cell voltage clamp. The class given is cell-based. Also on record: expressed in transfected cells; host or cells: HEK293. How it is done: HEK293 Cells expressing hNav1.7 were cultured in DMEM growth media (Gibco) with 0.5 mg/mL G418, +/−1% PSG, and 10% heat-inactivated fetal bovine serum at 37° C. and 5% CO2. For electrophysiological recordings, cells were plated on 10 mm dishes.
Whole cell recordings were examined by established methods of whole cell voltage clamp (Bean et al., op. cit.) using an Axopatch 200B amplifier and Clampex software (Axon Instruments, Union City, Calif.). All experiments were performed at ambient temperature. Electrodes were fire-polished to resistances of 2-4 Mohms Voltage errors and capacitance artifacts were minimized by series resistance compensation and capacitance compensation, respectively. Data were acquired at 40 kHz and filtered at 5 kHz. The external (bath) solution consisted of: NaCl (140 mM), KCl (5 mM), CaCl2 (2 mM), MgCl2 (1 mM), HEPES (10 mM) at pH 7.4. The internal (pipette) solution consisted of (in mM): NaCl (5), CaCl2 (0.1), MgCl2 (2), CsCl (10), CsF (120), HEPES (10), EGTA (10), at pH 7.2.
To estimate the steady-state affinity of compounds for the resting and inactivated state of the channel (Kr and Ki, respectively), 12.5 ms test pulses to depolarizing voltages from −60 to +90 m V from a holding potential of −120 m V was used to construct current-voltage relationships (1-V curves). A voltage near the peak of the IV-curve (−30 to 0 m V) was used as the test pulse throughout the remainder of the experiment. Steady-state inactivation (availability) curves were then constructed by measuring the current activated during a 8.75 ms test pulse following 1 second conditioning pulses to potentials ranging from −120 to −10 mV.
The steady-state voltage-dependence of binding of a compound to a voltage-gated sodium channel was determined by measuring the blockage of the ionic current at two holding potentials. Binding to rested-state channels was determined by using a holding potential of −120 mV, so that maximal availability was achieved. Binding to inactivated-state channels was evaluated at a holding potential such that only about 10% of the channels were available to open. The membrane potential was held at this voltage for at least 10 seconds so that drug binding could equilibrate.
The apparent dissociation constant at each voltage was calculated with the equation:
[formula] where Kd is the dissociation constant (either Kr or Ki), and [Drug] is the concentration of the test compound.

Each structure is given as a SMILES string. pIC50, pKd, pKi: −log10 of the molar value. Values after ≈ are worked out from the molar mass of the structure shown.

T1 sequence (Q15858 whole entry): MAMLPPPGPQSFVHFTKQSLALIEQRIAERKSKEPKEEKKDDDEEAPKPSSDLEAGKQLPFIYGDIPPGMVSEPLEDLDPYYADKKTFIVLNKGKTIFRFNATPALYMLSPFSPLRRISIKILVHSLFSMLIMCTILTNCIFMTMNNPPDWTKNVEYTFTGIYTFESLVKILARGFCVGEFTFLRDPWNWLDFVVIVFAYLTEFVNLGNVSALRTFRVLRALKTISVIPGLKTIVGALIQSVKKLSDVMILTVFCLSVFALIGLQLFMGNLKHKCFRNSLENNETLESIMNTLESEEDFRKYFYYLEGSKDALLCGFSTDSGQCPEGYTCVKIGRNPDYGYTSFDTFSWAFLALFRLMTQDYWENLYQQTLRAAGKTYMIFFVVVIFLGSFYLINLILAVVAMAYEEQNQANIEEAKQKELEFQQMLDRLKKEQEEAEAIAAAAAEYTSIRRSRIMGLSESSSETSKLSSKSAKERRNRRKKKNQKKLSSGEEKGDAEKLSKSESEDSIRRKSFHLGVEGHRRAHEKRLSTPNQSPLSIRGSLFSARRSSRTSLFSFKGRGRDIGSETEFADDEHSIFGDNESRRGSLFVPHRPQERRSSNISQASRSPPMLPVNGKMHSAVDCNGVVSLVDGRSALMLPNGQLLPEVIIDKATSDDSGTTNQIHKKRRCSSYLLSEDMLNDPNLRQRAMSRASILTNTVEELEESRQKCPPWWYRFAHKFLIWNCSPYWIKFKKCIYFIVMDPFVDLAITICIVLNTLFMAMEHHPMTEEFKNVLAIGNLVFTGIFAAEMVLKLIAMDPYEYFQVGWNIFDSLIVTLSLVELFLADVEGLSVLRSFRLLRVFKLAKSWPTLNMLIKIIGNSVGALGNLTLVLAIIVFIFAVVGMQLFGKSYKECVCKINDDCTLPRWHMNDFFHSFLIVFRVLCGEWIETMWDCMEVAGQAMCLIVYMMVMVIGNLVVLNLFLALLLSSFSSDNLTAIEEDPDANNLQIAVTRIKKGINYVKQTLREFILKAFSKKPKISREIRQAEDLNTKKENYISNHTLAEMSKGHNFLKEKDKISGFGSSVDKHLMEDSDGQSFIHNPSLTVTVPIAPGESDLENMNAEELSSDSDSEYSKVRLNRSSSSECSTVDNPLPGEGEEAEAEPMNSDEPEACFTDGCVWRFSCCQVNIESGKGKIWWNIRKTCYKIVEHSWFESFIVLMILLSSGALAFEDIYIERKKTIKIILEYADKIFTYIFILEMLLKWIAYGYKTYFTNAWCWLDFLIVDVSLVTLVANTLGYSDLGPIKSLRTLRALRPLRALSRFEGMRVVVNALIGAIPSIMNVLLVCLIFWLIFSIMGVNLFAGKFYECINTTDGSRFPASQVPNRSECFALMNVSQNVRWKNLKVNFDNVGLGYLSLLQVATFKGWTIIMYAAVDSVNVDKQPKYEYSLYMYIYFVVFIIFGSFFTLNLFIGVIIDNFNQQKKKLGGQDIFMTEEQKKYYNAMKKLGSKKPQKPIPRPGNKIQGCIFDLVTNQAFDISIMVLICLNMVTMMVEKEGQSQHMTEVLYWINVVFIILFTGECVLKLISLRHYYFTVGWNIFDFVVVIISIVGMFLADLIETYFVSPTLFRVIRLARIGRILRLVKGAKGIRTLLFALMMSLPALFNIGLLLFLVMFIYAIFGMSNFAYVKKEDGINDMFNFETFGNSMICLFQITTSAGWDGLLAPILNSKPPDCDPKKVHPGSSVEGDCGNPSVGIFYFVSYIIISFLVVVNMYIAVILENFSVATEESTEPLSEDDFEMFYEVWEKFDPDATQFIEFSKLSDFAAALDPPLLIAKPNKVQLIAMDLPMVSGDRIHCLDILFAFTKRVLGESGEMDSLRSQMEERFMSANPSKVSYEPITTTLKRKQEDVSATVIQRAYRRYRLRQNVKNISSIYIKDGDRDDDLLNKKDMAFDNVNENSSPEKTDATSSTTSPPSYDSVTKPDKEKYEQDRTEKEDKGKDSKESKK

What is called pIC50 is the IC50 on a negative log10 scale, so that one unit is a factor of ten. Usually solubility stands for how much of the substance goes into solution per volume. One may read the pKi as the Ki on a negative log10 scale, so that one unit is a factor of ten. Low readings indicate a large Ki, high ones a small Ki. At hNav1.7 [1], `O=C1N(Cc2ccc(C(F)(F)F)o2)c2ccccc2[C@]12COc1cc3c(cc12)OCO3` [(I-S), (S)-1′-{[5-(trifluoromethyl)furan-2-yl]methyl}spiro[furo[2,3-f][1,3]benzodioxole-7,3′-indol]-2′(1′H)-one] gave a pIC50 of 8.52. The solubility in series [2] (Ethanol, organic solvent or mixture) is 36.4 mg/mL (≈ 84.8 mM); in series [2] (PEG 400, organic solvent or mixture) it was above 55 mg/mL; in series [2] (Propylene glycol, organic solvent or mixture), 9.8 mg/mL (≈ 22.8 mM); in series [2] (oil or lipid, Capryol ® 90) it was 96 mg/mL (≈ 224 mM); in series [2] (oil or lipid, Labrasol ®), 231 mg/mL (≈ 538 mM); in series [2] (oil or lipid, Labrasol ®/Capryol ® 90 60/40), 191 mg/mL (≈ 445 mM). Besides, the solubility in series [2] (organic solvent or mixture, Labrasol ®/PEG 400 60/40) is 182 mg/mL (≈ 424 mM); in series [2] (organic solvent or mixture, Labrasol ®/Transcutol ® 60/40), 186 mg/mL (≈ 433 mM); in series [2] (organic solvent or mixture, Tween ® 80), above 123 mg/mL. Further, the concentrations in plasma in series [3] (below LLOQ in most samples (489 out of 546=~90%)) is listed as below 0.1 ng/mL. Besides, the concentration at 22 day in series [3] (human, plasma, Day 22, read-out: highest level observed in plasma in one subject during the dosing period) came out at 0.994 ng/mL. Moreover, the onset of action result with dental pain is reported as “slow onset of action”. Also, the “pain relief compared to placebo” value in the series on dental pain is on record as “higher”. Besides, the “primary and all secondary endpoints (TOTPAR, PID, SPID) versus placebo” value with dental pain was “consistent analgesic trend”. The “statistical significance from the placebo” value in the series with dental pain is “not achieved”. The “potency in binding to the inactivated-state of hNav1.7 relative to the (R)-enantiomer” value at hNav1.7 [4] ((S)- versus (R)-enantiomer) is reported as “about 5 times”. Further, at hNav1.7 [4] (affinity for the inactivated state of hNav1.7), the pKi is 6.79. For the same compound, the pKd at hNav1.7 [4] (affinity for the rested/closed state of hNav1.7, holding potential −120 mV, read-out: Kr) is below 5.00.

(Values after US9480677B2, “Enantiomers of spiro-oxindole compounds and their uses as therapeutic agents” (Xenon Pharmaceuticals Inc., priority 2009, dated 2016).)
